{"source": "patent US8895302B2", "about": "“Directed differentiation of primate pluripotent stem cells into functional basal forebrain cholinergic neurons (BFCNs) and medium spiny gabaergic projection neurons” (Wisconsin Alumni Research Foundation, priority 2010, dated 2014)", "key": {"[1]": {"tested_on": "hESC-derived primitive neural stem cells", "test": "Patterning of hESC-derived primitive neural stem cells to ventral telencephalic progenitors (immunocytochemistry, FACS, Western blotting)", "assay_type": "cell-based, human", "experimental": "(§1) The procedure for differentiating hESCs to neuroectodermal cells was the same as described (Li et al., 2005; Zhang et al., 2001). hESCs were differentiated to Pax6-expressing primitive neural stem cells for 10-12 days in a neural induction medium consisting of DMEM/F12, N2 supplement and non-essential amino acids (Pankratz et al., 2007; Zhang et al., 2001). The primitive neural stem cells were then treated with SHH (50-1000 ng/ml) or its small molecule agonist purmorphamine (0.1-1.5 uM, Calbiochem, San Diego, Calif., USA) from day 12 to day 26 to specify ventral progenitors. During this period, neural stem cells grew rapidly and formed neural tube-like rosettes, which were gently blown off at day 15-17 and grown in suspension under the same medium. For neuronal differentiation, neural progenitor clusters were dissociated with Accutase at 37° C. for 5 minutes and plated onto ornithine/laminin-coated coverslips at day 26 in Neurobasal medium.\nImmunocytochemical staining on coverslip cultures and free-floating brain sections was performed as previously described (Li et al., 2005; Yang et al., 2008). The images were visualized using a Nikon TE600 fluorescence microscope (Nikon Instruments, Melville, N.Y., USA) or a Nikon C1 laser-scanning confocal microscope.\nProtein samples were collected at day 25 after differentiation. Western blot analysis was performed as described (Li et al., 2009). Proteins (25 μg) were separated by 10% acrylamide gel and blotted with antibodies against Nkx2.1 (1:2,000, Mouse IgG, Chemicon & Millipore), Pax6 (1:4,000, Rabbit IgG, Covance), and β-actin (1:4,000, Mouse IgG, Sigma).\nTo quantify the differentiation efficiency of forebrain progenitors, neural progenitor spheres were dissociated into single cells and quantified by fluorescent activated cell sorting (FACS) (LaVaute et al., 2009). For quantifying differentiated cholinergic neurons, the neural progenitor spheres were digested with Accutase (Innovation Cell Technology) into small clusters and plated on coverslips for immunostaining as previous described (Li et al., 2005; Hu et al., 2009). Optical fields of cultures were randomly selected, and the neuronal cells and total cells (Hoechst stained) were counted using a Metamorph software. All the experiments were triplicated and the results were reproduced in two different cell lines (H1 and H9). For statistical analysis, 2-side t-test was used.\nhESCs were first differentiated to Pax6-expressing pNSCs in a chemically defined medium as previously described (Johnson et al., 2007; Li et al., 2005; Zhang et al., 2001). We first determined the time course of SHH action by applying SHH for a week at day 10, 13, and 17 and by quantifying cells that express Nkx2.1, an MGE transcription factor.\nBasal forebrain cholinergic neurons (BFCNs) are differentiated from progenitors in the MGE and POa/AEP domains that express Nkx2.1 (Wilson and Rubenstein, 2000; Zhao et al., 2003). […] In contrast, the expression of dorsal telencephalic transcription factors, Pax6 and Emx1, was decreased (FIG. 1B). Immunostaining and Western blotting analyses confirmed that Nkx2.1-expressing cell population increased progressively, with 97±1.3% of the cells being Nkx2.1 positive in the presence of 1000 ng/ml of SHH, whereas the population of Pax6 positive dorsal progenitors decreased, to less than 0.01% under 1000 ng/mlof SHH (FIG. 1C, D, E)."}, "[2]": {"tested_on": "hESC-derived primitive neural stem cells", "test": "RT-qPCR of dorsal/ventral transcription factors in patterned neural stem cells", "assay_type": "cell-based, human", "conditions": "SHH 200 or 0.65 uM of purmorphamine, day 25", "experimental": "as §1\nTotal RNA was extracted using Trizol reagent (Invitrogen), and cDNA was reverse-transcribed using the SuperScript III First-Strand (Invitrogen). Real-time PCR was performed using the Bio-Rad MyiQ real-time PCR detection system as described (Du et al., 2009).\nBasal forebrain cholinergic neurons (BFCNs) are differentiated from progenitors in the MGE and POa/AEP domains that express Nkx2.1 (Wilson and Rubenstein, 2000; Zhao et al., 2003). […]"}, "striatum": {"tested_on": "striatum", "test": "Unilateral QA-induced striatal lesion", "assay_type": "in vivo, SCID mice", "experimental": "Twenty-four male SCID mice (10 weeks of age) were anesthetized with 1-2% isoflurane mixed in oxygen, and received stereotaxic injection of 2 μl 0.1M quinolinic acid (QA, P63204; Sigma, in saline with 0.2 mg/ml ascorbic acid) in the right striatum at the coordinates (anterior-posterior (AP)=−0.7 mm, lateral (L)=+1.7 mm, vertical (V)=−3.2 mm) to create the unilateral lesion (Hansson et al., 1999).\nTo assess the function of in vitro produced human medium spiny GABA projection neurons, we created a unilateral QA-induced striatal lesion model in immune deficient SCID mice (Sanberg et al., 1989; Reynolds et al., 2006). Four weeks post injection of QA, majority of neurons, as labeled by NeuN, including FoxP2 and DARPP32 expressing GABA projection neurons in the striatum were lost, resulting in a smaller striatum in the lesion side as compared to the non-lesion side. Accompanying the loss of neurons, there was a significant increased level of GFAP expression in astrocytes."}, "[3]": {"tested_on": "hESC-derived cholinergic neurons", "test": "Whole-cell patch clamp, spontaneous synaptic currents of hESC-derived BFCNs", "assay_type": "cell-based, human", "conditions": "CNQX 20 μM in bath, BFCNs differentiated 8-10 weeks", "experimental": "Whole-cell patch-clamp recordings were made from hESC-derived cholinergic neurons at 8-10 weeks age as previously reported (Johnson et al., 2007). Briefly, the neurons were held at −70 mV to record the spontaneous release and Na+/K+ channel activities. For action potential recording, the cells were held at 0 pA with current-clamp model and the steps of currents from +[…] were injected into cells by the holding electrode. The bath solution consisted of 127 mM NaCl, 1.2 mM KH2PO4, 1.9 mM KCl, 26 mM NaHCO3, 2.2 mM CaCl2, 1.4 mM MgSO4, 10 mM glucose, 290 mM mOsm and 95% O2/5% CO2. Recording pipettes were filled with an intracellular recording solution consisting of 20 mM KCl, 121 mM K^+-gluconate, 10 mM Na^+-HEPES, 10 mM BAPTA, 4 mM Mg2^+-ATP pH 7.2 and 290 mOm. Bicuculline (20 μM; Sigma) or 6-cyano-7-nitroquinoxiline-2,3-dione (CNQX, 20 μM; RBI) was applied to the bath solution to distinguish inhibitory (GABAergic) and excitatory (glutamatergic) response. Biocytin (1%, Sigma) was injected into cells after recording to identify the neuronal identity. An Olympus BX51WI microscope was used to visualize neurons. […] Data were analyzed with pClamp 9.0 (Axon instruments). […]\nTo determine the functionality of the hESC-derived BFCNs, we first measured the electrophysiological properties of the BFCNs that were differentiated for 8-10 weeks by whole cell patch clamping recording (FIG. 3). […]"}, "[4]": {"conditions": "SHH 200 ng/ml or purmorphamine 0.65 uM, day 30"}}, "data": [{"molecule": "c1ccc2c(Oc3nc(Nc4ccc(N5CCOCC5)cc4)c4ncn(C5CCCCC5)c4n3)cccc2c1", "note": "[purmorphamine]", "values": [{"measurement": "GABA interneuron progenitor marker Nkx2.1 (immunostaining)", "setting": "[1]; [4]", "result": "minimal expression"}, {"measurement": "cortical marker Pax6 (immunostaining)", "setting": "[1]; [4]", "result": "decreased expression"}, {"measurement": "striatal GABA neuron progenitor markers Meis2, Mash1 and Otx2 (immunostaining)", "setting": "[1]; [4]", "result": "increased expression"}, {"measurement": "purmorphamine concentration equivalent to SHH at 200 ng/ml for GABAergic progenitors", "setting": "[1]; pNSCs treated at day 10-12", "result": "~0.65", "unit": "µM"}, {"measurement": "purmorphamine concentration equivalent to SHH at 500 ng/ml for cholinergic progenitors", "setting": "[1]; pNSCs treated at day 10-12", "result": "~1", "unit": "µM"}, {"measurement": "Gsh2 mRNA versus control group (RT-qPCR)", "setting": "[2]", "result": "upregulated expression"}, {"measurement": "Pax6 mRNA versus control group (RT-qPCR)", "setting": "[2]", "result": "downregulation"}]}, {"molecule": "O=C(O)c1cccnc1C(=O)O", "note": "[QA, quinolinic acid]", "values": [{"measurement": "stride length on the right limbs versus control animals that received aCSF (Treadscan)", "setting": "striatum; lesioned mice", "result": "longer stride length"}, {"measurement": "behavioural outcome of unilateral striatal lesion", "setting": "striatum; rotarod, open field, Treadscan", "result": "locomotion deficits typical of HD"}]}, {"molecule": "N#Cc1cc2[nH]c(=O)c(=O)[nH]c2cc1[N+](=O)[O-]", "note": "[CNQX, 6-cyano-7-nitroquinoxiline-2,3-dione]", "values": [{"measurement": "spontaneous synaptic activity", "setting": "[3]", "result": "partially blocked"}]}]}
